Starred links: 1 amine or outer side, 2 acyl side, 3 side chain; linkers in the order of their positions; H or OH if unused. Non-standard residues stand in square brackets, D forms with d. Residues, ends and D or L forms follow the SMILES beside them. Groups on a side chain read outwards from the residue. *: point of attachment. γGlu = O=C(O)[C@H](CCC(=O)[*:2])N[*:1]; Stearoyl = CCCCCCCCCCCCCCCCCC(=O)*; Nle = CCCC[C@H](N)C(=O)O; AEEA = NCCOCCOCC(=O)O; Aib = CC(C)(N)C(=O)O
Assays:
Relaxin receptor 1 [1] = molecular target: T1, Relaxin receptor 1 (Homo sapiens, UniProt Q9HBX9); experiment: Agonist activity at human RXFP1 expressed in human OVCAR-5 cells assessed as intracellular cAMP accumulation incubated for 30 mins by HTRF assay; type: functional, cell-based
T1 sequence (Q9HBX9 whole entry): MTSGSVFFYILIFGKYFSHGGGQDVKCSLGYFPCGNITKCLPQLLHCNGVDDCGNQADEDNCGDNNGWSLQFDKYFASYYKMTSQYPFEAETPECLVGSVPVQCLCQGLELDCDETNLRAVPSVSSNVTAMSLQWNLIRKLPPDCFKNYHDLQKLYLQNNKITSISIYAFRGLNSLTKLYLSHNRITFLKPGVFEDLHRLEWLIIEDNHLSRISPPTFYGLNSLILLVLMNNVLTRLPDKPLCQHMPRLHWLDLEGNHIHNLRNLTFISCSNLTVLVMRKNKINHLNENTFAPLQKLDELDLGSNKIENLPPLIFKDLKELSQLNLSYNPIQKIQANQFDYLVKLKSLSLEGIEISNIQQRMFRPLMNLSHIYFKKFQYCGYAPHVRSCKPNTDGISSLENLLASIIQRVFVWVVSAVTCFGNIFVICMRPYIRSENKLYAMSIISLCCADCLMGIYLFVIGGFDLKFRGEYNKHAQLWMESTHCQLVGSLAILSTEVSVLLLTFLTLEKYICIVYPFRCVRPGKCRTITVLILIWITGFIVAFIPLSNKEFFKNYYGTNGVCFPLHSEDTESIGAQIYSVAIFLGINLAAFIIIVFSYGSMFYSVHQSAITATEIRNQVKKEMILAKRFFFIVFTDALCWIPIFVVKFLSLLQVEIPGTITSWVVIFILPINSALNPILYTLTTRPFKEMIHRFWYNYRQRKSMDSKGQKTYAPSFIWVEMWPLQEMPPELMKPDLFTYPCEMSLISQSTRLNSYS

[2] = molecular target: T2, Relaxin receptor 1 (Homo sapiens) (UniProt Q9HBX9); experiment: Agonist activity at human RXFP1 expressed in human OVCAR-5 cells assessed as intracellular cAMP accumulation by measuring maximal efficacy incubated for 30 mins by HTRF assay relative to control; type: functional, cell-based; conditions: filed as agonist
T2 sequence (whole entry): T1 sequence (Q9HBX9 whole entry)

Relaxin receptor 1 [3] = molecular target: T1, Relaxin receptor 1; experiment: Agonist activity at human RXFP1 expressed in 2%HSA treated human OVCAR-5 cells assessed as intracellular cAMP accumulation incubated for 30 mins with 2% HSA pretreated compound by HTRF assay; type: functional, cell-based
[4] = molecular target: T2, Relaxin receptor 1 (Homo sapiens); experiment: Agonist activity at human RXFP1 expressed in 2%HSA treated human OVCAR-5 cells assessed as intracellular cAMP accumulation by measuring maximal efficacy incubated for 30 mins with 2% HSA pretreated compound by HTRF assay relative to control; type: functional, cell-based; conditions: filed as agonist
[5] = Half-life in male Sprague-Dawley rat at 1 mg/kg, iv measured after 198 hrs by LC-HRMS analysis; type: ADME, organism-based; conditions: in vivo
[6] = AUC (0 to 24 hrs) in male Sprague-Dawley rat at 1 mg/kg, iv measured after 198 hrs by LC-HRMS analysis; type: ADME, organism-based; conditions: in vivo
[7] = Cmax in male Sprague-Dawley rat at 3 mg/kg, sc measured after 198 hrs by LC-HRMS analysis; type: ADME, organism-based; conditions: in vivo
[8] = Bioavailability in male Sprague-Dawley rat at 3 mg/kg, sc measured after 198 hrs by LC-HRMS analysis; type: ADME, organism-based; conditions: in vivo
[9] = Drug metabolism in male Sprague-Dawley rat assessed as fatty acid chain oxidation mediated M+16 metabolite formation by measuring metabolite to parent compound AUC ratio at 1 mg/kg, iv measured after 198 hrs by LC-HRMS analysis; type: ADME, organism-based; conditions: in vivo
[10] = Drug metabolism in male Sprague-Dawley rat assessed as fatty acid chain oxidation mediated M+16 metabolite formation by measuring metabolite to parent compound AUC ratio at 3 mg/kg, sc measured after 198 hrs by LC-HRMS analysis; type: ADME, organism-based; conditions: in vivo
[11] = Half-life in male Beagle dog at 1 mg/kg, iv measured after 198 hrs by LC-HRMS analysis; type: ADME, organism-based, Canis lupus familiaris; conditions: in vivo
[12] = Drug metabolism in male Beagle dog assessed as fatty acid chain oxidation mediated M+16 metabolite formation by measuring metabolite to parent compound AUC ratio at 1 mg/kg, iv measured after 198 hrs by LC-HRMS analysis; type: ADME, organism-based, Canis lupus familiaris; conditions: in vivo
[13] = Drug metabolism in male Beagle dog assessed as fatty acid chain oxidation mediated M+16 metabolite formation by measuring metabolite to parent compound AUC ratio at 3 mg/kg, sc measured after 198 hrs by LC-HRMS analysis; type: ADME, organism-based, Canis lupus familiaris; conditions: in vivo
[14] = Half-life in female Gottingen pig at 1 mg/kg, iv measured after 198 hrs by LC-HRMS analysis; type: ADME, organism-based, Sus scrofa; conditions: in vivo
[15] = Drug metabolism in female Gottingen pig assessed as fatty acid chain oxidation mediated M+16 metabolite formation by measuring metabolite to parent compound AUC ratio at 1 mg/kg, iv measured after 198 hrs by LC-HRMS analysis; type: ADME, organism-based, Sus scrofa; conditions: in vivo
[16] = Drug metabolism in female Gottingen pig assessed as fatty acid chain oxidation mediated M+16 metabolite formation by measuring metabolite to parent compound AUC ratio at 1 mg/kg, sc measured after 198 hrs by LC-HRMS analysis; type: ADME, organism-based, Sus scrofa; conditions: in vivo
[17] = Induction of mast cell degranulation in human LAD2 cells assessed as beta-hexosaminidase release by measuring 4-methylumbelliferyl N-acetyl-beta-D-glucosaminide hydrolysis incubated for 30 mins by plate reader analysis; type: toxicity, cell-based; conditions: probe 4-methylumbelliferyl N-acetyl-beta-D-glucosaminide
[18] = Induction of mast cell degranulation in human LAD2 cells assessed as beta-hexosaminidase release by measuring maximal efficacy of 4-methylumbelliferyl N-acetyl-beta-D-glucosaminide hydrolysis at 33 uM incubated for 30 mins by plate reader analysis relative to control; type: toxicity, cell-based; conditions: probe 4-methylumbelliferyl N-acetyl-beta-D-glucosaminide
[19] = Induction of immune response in human CD4+ T cells assessed as increase in auto reactive T cells at 3 uM preincubated with monocyte-derived immature dendritic cells followed by T cell addition and further stimulated on day 7 and 14 with autologous dendritic cells and measured after 5 days post last stimulation by IFNgamma-Elispot analysis; type: toxicity, cell-based; conditions: 120 h
Rattus norvegicus = experiment: Chronotropic effect in pithed male Sprague-Dawley rat assessed as increase in heart rate at 1 mg/kg, iv measured after 60 mins relative to control; type: functional

CCCCCCCCCCCCCCCCCC(=O)N[C@@H](CCC(=O)N[C@@H](CCC(=O)N[C@@H](CCC(=O)NCCOCCOCC(=O)NCCOCCOCC(=O)NCCOCCOCC(=O)NCCCC[C@H](NC(=O)[C@H](CCCCNC(C)=O)NC(=O)[C@H](CCCCN)NC(=O)[C@H](CCCNC(=N)N)NC(=O)C(C)(C)NC(=O)[C@H](CO)NC(=O)[C@H](Cc1c[nH]c2ccccc12)NC(=O)[C@@H](NC(=O)[C@H](CO)NC(=O)[C@H](CCCC)NC(=O)CNC(=O)[C@H](CCC(=O)O)NC(=O)C(C)(C)NC(=O)C(C)(C)NC(=O)[C@@H](NC(=O)[C@H](CCCCNC(C)=O)NC(=O)[C@H](C)NC(=O)[C@H](CCCNC(=N)N)NC(=O)[C@@H](NC(=O)[C@H](CCCCN)NC(=O)[C@H](CCC(=O)O)NC(=O)[C@H](CCCNC(=N)N)NC(=O)CNC(=O)[C@H](CCC(=O)O)NC(=O)[C@H](CC(C)C)NC(C)=O)C(C)C)[C@@H](C)CC)[C@@H](C)O)C(N)=O)C(=O)O)C(=O)O)C(=O)O (Ac-LEGREKVRAK(Ac)I[Aib][Aib]EG[Nle]STWS[Aib]RKK(Ac)K([AEEA-AEEA-AEEA-γGlu-γGlu-γGlu-Stearoyl])-NH2)
EC50 (Relaxin receptor 1 [1]): 0.2 nM | Emax [2]: 84% | EC50 (Relaxin receptor 1 [3]): 18.4 nM | Emax [4]: 89% | half-life [5]: 3.9 h | AUC(0-t) at 198 h [6]: 9.4 µM·h | Cmax [7]: 1500 nM | bioavailability [8]: 74% | Ratio AUC [9]: < 0.1 | Ratio AUC [10]: 0.104 | half-life [11]: 3.4 h | Ratio AUC [12]: 19.4 | Ratio AUC [13]: 6.6 | half-life [14]: 7 h | Ratio AUC [15]: 4 | Ratio AUC [16]: 4 | EC50 at 30 min [17]: 1260 nM | Emax at 0.5 h, 33 µM [18]: 59.6% | Activity [19]: Non-toxic | Activity (Rattus norvegicus): 29%

From ChEMBL document CHEMBL6096738, “Optimization of Single Relaxin B-Chain Peptide Leads to the Identification of R2R01, a Potent, Long-Acting RXFP1 Agonist for Cardiovascular and Renal Diseases” (J Med Chem, 2025)
